# Assay results: ChEMBL document CHEMBL3991601, “The target landscape of clinical kinase drugs” (Science, 2017)
# Calls of active or inactive are those of the source.
# Assays:
# [1] = target: Inosine-5'-monophosphate dehydrogenase 2 (Homo sapiens, UniProt P12268)
# [2] = target: T1, Cytochrome c1, heme protein, mitochondrial (Homo sapiens, UniProt P08574)
# T1 sequence (P08574 whole entry): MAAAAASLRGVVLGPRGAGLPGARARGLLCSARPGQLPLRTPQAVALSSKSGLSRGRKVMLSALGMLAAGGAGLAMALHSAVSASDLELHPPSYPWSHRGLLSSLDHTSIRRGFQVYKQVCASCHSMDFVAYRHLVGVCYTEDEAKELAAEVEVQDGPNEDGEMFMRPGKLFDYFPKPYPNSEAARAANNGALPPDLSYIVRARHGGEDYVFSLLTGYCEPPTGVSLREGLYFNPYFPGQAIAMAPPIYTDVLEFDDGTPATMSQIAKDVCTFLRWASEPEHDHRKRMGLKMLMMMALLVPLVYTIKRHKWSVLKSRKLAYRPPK
# [3] = target: T2, ADP/ATP translocase 3 (Homo sapiens, UniProt P12236)
# T2 sequence (P12236 whole entry): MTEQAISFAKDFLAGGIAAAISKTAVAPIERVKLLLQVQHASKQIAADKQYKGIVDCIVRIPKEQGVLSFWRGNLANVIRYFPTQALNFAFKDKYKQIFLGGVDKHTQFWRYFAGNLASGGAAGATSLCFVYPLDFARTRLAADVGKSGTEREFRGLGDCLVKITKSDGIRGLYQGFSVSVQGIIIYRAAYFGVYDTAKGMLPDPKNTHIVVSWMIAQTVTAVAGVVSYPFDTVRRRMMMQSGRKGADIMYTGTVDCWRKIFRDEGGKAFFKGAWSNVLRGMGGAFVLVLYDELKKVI
# [4] = target: T3, Bifunctional phosphoribosylaminoimidazole carboxylase/phosphoribosylaminoimidazole succinocarboxamide synthetase (Homo sapiens, UniProt P22234)
# T3 sequence (P22234 whole entry): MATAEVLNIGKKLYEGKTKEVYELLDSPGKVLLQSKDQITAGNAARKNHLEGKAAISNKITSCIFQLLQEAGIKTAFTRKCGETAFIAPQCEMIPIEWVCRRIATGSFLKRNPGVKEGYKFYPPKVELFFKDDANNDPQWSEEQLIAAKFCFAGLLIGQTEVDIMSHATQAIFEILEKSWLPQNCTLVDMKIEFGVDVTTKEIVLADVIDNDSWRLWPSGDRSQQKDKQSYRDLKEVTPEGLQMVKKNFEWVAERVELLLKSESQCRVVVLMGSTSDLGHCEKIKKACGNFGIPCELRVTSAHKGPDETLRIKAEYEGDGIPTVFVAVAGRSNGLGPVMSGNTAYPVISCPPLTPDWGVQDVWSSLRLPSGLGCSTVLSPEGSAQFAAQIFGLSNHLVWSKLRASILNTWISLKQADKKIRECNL
# [5] = target: T4, Interleukin-1 receptor-associated kinase 4 (Homo sapiens, UniProt Q9NWZ3)
# T4 sequence (Q9NWZ3 whole entry): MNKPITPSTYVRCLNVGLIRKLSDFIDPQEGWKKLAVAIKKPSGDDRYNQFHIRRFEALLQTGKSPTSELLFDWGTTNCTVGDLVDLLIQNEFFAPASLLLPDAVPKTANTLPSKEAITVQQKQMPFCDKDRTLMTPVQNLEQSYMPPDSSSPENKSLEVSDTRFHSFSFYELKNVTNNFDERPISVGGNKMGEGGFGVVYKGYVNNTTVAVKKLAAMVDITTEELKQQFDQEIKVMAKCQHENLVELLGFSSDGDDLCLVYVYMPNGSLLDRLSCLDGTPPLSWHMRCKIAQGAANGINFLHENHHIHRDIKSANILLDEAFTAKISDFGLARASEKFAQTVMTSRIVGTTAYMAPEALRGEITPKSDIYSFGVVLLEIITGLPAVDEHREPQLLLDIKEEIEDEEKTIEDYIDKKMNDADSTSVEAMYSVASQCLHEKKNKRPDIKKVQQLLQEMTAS
# [6] = target: T5, Dual specificity mitogen-activated protein kinase kinase 3 (Homo sapiens, UniProt P46734)
# T5 sequence (P46734 whole entry): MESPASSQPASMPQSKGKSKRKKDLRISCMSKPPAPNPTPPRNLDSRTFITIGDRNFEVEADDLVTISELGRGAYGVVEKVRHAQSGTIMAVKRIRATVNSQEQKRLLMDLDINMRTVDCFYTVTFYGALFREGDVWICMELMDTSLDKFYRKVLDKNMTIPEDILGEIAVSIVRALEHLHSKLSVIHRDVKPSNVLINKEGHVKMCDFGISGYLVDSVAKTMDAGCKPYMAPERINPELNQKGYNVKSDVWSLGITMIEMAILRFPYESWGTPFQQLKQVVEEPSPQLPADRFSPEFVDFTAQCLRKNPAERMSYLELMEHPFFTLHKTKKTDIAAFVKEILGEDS
# [7] = target: Mitogen-activated protein kinase 10 (Homo sapiens, UniProt P53779)
# Further: in the data inactive means no Kd found up to 30 µM.
# Chain of Mitogen-activated protein kinase 10 (P53779 whole entry): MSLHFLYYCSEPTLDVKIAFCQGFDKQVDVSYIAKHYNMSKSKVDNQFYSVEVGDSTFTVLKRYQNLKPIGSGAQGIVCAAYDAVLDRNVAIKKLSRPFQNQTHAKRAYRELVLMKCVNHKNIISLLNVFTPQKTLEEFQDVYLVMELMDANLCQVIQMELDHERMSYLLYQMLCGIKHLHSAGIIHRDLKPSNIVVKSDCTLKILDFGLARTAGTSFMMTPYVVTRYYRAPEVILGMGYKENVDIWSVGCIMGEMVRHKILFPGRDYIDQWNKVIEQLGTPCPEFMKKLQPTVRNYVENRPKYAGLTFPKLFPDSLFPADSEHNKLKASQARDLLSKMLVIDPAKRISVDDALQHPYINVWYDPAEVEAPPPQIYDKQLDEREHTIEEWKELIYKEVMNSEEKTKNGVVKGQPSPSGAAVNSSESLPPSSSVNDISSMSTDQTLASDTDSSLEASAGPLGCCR
Kd [1],Kd [2],Kd [3],Kd [4],Kd [5],Kd [6],Kd [7],Structure (SMILES)
,> 30 µM (inactive),> 30 µM (inactive),> 30 µM (inactive),> 30 µM (inactive),> 30 µM (inactive),> 30 µM (inactive),Cn1cc(-c2ccc3nnc(C(F)(F)c4ccc5ncccc5c4)n3n2)cn1 [JNJ-38877605]
,> 30 µM (inactive),> 30 µM (inactive),> 30 µM (inactive),> 30 µM (inactive),> 30 µM (inactive),> 30 µM (inactive),C[C@@H]1CN(Cc2ccc(F)cc2)[C@@H](C)CN1C(=O)c1cc2c(C(=O)C(=O)N(C)C)cn(C)c2cc1Cl [TALMAPIMOD]
,> 30 µM (inactive),> 30 µM (inactive),> 30 µM (inactive),> 30 µM (inactive),> 30 µM (inactive),> 30 µM (inactive),COc1cc(N2CCC(N3CCN(C)CC3)CC2)ccc1Nc1ncnc(Nc2ccccc2S(=O)(=O)C(C)C)n1 [ASP-3026]
> 30 µM (inactive),> 30 µM (inactive),> 30 µM (inactive),> 30 µM (inactive),,> 30 µM (inactive),0.147 µM (active),Cc1nc(N)sc1-c1ccnc(Nc2ccc(N3CCOCC3)cc2)n1 [CYC-116]
> 30 µM (inactive),> 30 µM (inactive),> 30 µM (inactive),> 30 µM (inactive),,,,CN1CCN(c2ccc3nc(-c4c(N)c5c(F)cccc5[nH]c4=O)[nH]c3c2)CC1 [DOVITINIB]
> 30 µM (inactive),,> 30 µM (inactive),> 30 µM (inactive),,,,Nc1nc(N)c2nc(-c3cccc(O)c3)c(-c3cccc(O)c3)nc2n1 [TG100-115]
,> 30 µM (inactive),> 30 µM (inactive),> 30 µM (inactive),> 30 µM (inactive),> 30 µM (inactive),> 30 µM (inactive),Cc1ccc(NC(=O)c2ccc(CN3CC[C@H](N(C)C)C3)c(C(F)(F)F)c2)cc1Nc1nccc(-c2cncnc2)n1 [BAFETINIB]
,> 30 µM (inactive),> 30 µM (inactive),> 30 µM (inactive),> 30 µM (inactive),> 30 µM (inactive),> 30 µM (inactive),O=C1NC(=O)/C(=C/c2ccc3nccc(-c4ccncc4)c3c2)S1 [GSK-1059615]

# Second part, the compound before the results:
Structure (SMILES),Kd [1],Kd [2],Kd [3],Kd [4],Kd [5],Kd [6],Kd [7]
Cc1cn(-c2cc(NC(=O)c3ccc(C)c(Nc4nccc(-c5cccnc5)n4)c3)cc(C(F)(F)F)c2)cn1 [NILOTINIB],> 30 µM (inactive),> 30 µM (inactive),> 30 µM (inactive),> 30 µM (inactive),,,
C[C@@H](Nc1cc(F)cc(F)c1)c1cc(C(=O)N(C)C)cc2c(=O)cc(N3CCOCC3)oc12 [AZD-8186],,> 30 µM (inactive),> 30 µM (inactive),> 30 µM (inactive),> 30 µM (inactive),> 30 µM (inactive),> 30 µM (inactive)
C=CC(=O)N1CCC(Oc2cc3c(Nc4ccc(Cl)c(Cl)c4F)ncnc3cc2OC)CC1 [POZIOTINIB],,> 30 µM (inactive),> 30 µM (inactive),> 30 µM (inactive),> 30 µM (inactive),> 30 µM (inactive),> 30 µM (inactive)
O=C(Nc1cccc(Cl)c1)Nc1ncc(CCNc2ncnc3ccsc23)s1 [SNS-314],> 30 µM (inactive),> 30 µM (inactive),> 30 µM (inactive),> 30 µM (inactive),,,
CCn1c(-c2nonc2N)nc2c(C#CC(C)(C)O)ncc(OC[C@H]3CCCNC3)c21 [GSK-690693],> 30 µM (inactive),> 30 µM (inactive),> 30 µM (inactive),> 30 µM (inactive),,,
CN(C)C(=O)c1cc2cnc(Nc3ccc(N4CCNCC4)cn3)nc2n1C1CCCC1 [RIBOCICLIB],,> 30 µM (inactive),> 30 µM (inactive),> 30 µM (inactive),> 30 µM (inactive),> 30 µM (inactive),> 30 µM (inactive)
Cc1cc2c(F)c(Oc3ncnn4cc(OC[C@@H](C)OC(=O)[C@H](C)N)c(C)c34)ccc2[nH]1 [BRIVANIB ALANINATE],,> 30 µM (inactive),> 30 µM (inactive),> 30 µM (inactive),> 30 µM (inactive),> 30 µM (inactive),> 30 µM (inactive)
